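A five-concentration, 48-hour dose response in 96-well plates underlies each endpoint, interpolated linearly between surrounding concentrations. GI50 = concentration required for 50% inhibition of growth.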 The source made the active and inactive calls. No stated cut-off is given here; in the data, active = GI50 up to about 1.1 µM and inactive = higher.
Legend:
Test in all cases: growth of human tumour cells (NCI), 48 h
HCT-15 = system: HCT-15
SF-268 = system: SF-268
KM12 = system: KM12
IGROV-1 = system: IGROV-1
EKVX = system: EKVX
SR = system: SR
OVCAR-3 = system: OVCAR-3
RXF 393 = system: RXF 393
OVCAR-4 = system: OVCAR-4
MOLT-4 = system: MOLT-4
DLD-1 = system: DLD-1
HCT-116 = system: HCT-116
U-251 = system: U-251
SW-620 = system: SW-620
A549 = system: A549

SMILES	GI50 (HCT-15) [µM]	GI50 (SF-268)	GI50 (KM12)	GI50 (IGROV-1)	GI50 (EKVX)	GI50 (SR)	GI50 (OVCAR-3)	GI50 (RXF 393)	GI50 (OVCAR-4)	GI50 (MOLT-4)	GI50 (DLD-1)	GI50 (HCT-116)	GI50 (U-251)	GI50 (SW-620)	GI50 (A549)
CCOC(=O)NC(=O)c1cn(CCN2CCNCC2)c(=O)[nH]c1=O	> 100	> 100 µM (inactive)	> 100 µM (inactive)	> 100 µM (inactive)	> 100 µM (inactive)	> 100 µM (inactive)	> 100 µM (inactive)	> 100 µM (inactive)	> 100 µM (inactive)	> 100 µM (inactive)	> 100 µM (inactive)	> 100 µM (inactive)	> 100 µM (inactive)	> 100 µM (inactive)	> 100 µM (inactive)
N=c1oc2c(O)c(O)ccc2cc1C(N)=O	> 100	96.4 µM (inactive)	> 100 µM (inactive)	> 100 µM (inactive)	47.2 µM (inactive)	–	46.8 µM (inactive)	50.2 µM (inactive)	17.5 µM (inactive)	34 µM (inactive)	> 100 µM (inactive)	51.1 µM (inactive)	90.6 µM (inactive)	32.1 µM (inactive)	> 100 µM (inactive)
NC(CCC(=O)NC(CSC(=O)N(O)c1ccccc1)C(=O)NCC(=O)O)C(=O)O (centres undefined)	> 1000	> 1000 µM (inactive)	> 1000 µM (inactive)	> 1000 µM (inactive)	> 1000 µM (inactive)	> 1000 µM (inactive)	> 1000 µM (inactive)	> 1000 µM (inactive)	> 1000 µM (inactive)	–	> 1000 µM (inactive)	> 1000 µM (inactive)	> 1000 µM (inactive)	> 1000 µM (inactive)	> 1000 µM (inactive)
OC1CC(O)O[C@H](c2ccccc2)C1 (some centres undefined)	> 100	> 100 µM (inactive)	> 100 µM (inactive)	> 100 µM (inactive)	> 100 µM (inactive)	> 100 µM (inactive)	> 100 µM (inactive)	> 100 µM (inactive)	> 100 µM (inactive)	> 100 µM (inactive)	> 100 µM (inactive)	> 100 µM (inactive)	–	> 100 µM (inactive)	> 100 µM (inactive)
COc1cc2c3c(c1OC)C(=O)C=C3N(S(=O)(=O)c1ccc(C)cc1)CC2	> 100	> 100 µM (inactive)	> 100 µM (inactive)	> 100 µM (inactive)	> 100 µM (inactive)	> 100 µM (inactive)	> 100 µM (inactive)	–	65.8 µM (inactive)	> 100 µM (inactive)	> 100 µM (inactive)	> 100 µM (inactive)	84.5 µM (inactive)	> 100 µM (inactive)	> 100 µM (inactive)
CC(C)(C)C#COC(=O)c1ccccc1	> 100	> 100 µM (inactive)	> 100 µM (inactive)	> 100 µM (inactive)	> 100 µM (inactive)	> 100 µM (inactive)	> 100 µM (inactive)	–	> 100 µM (inactive)	> 100 µM (inactive)	> 100 µM (inactive)	> 100 µM (inactive)	> 100 µM (inactive)	> 100 µM (inactive)	> 100 µM (inactive)
CCOc1ccc2nc(NC(=O)C(=O)C(C#N)CC(C)(C)C=O)sc2c1 (centres undefined)	43.9	> 100 µM (inactive)	> 100 µM (inactive)	> 100 µM (inactive)	> 100 µM (inactive)	21 µM (inactive)	> 100 µM (inactive)	> 100 µM (inactive)	> 100 µM (inactive)	> 100 µM (inactive)	> 100 µM (inactive)	> 100 µM (inactive)	> 100 µM (inactive)	–	> 100 µM (inactive)
Cc1ccc(/C=C(\C#N)c2ccccc2)cc1	> 100	> 100 µM (inactive)	> 100 µM (inactive)	> 100 µM (inactive)	–	> 100 µM (inactive)	> 100 µM (inactive)	> 100 µM (inactive)	> 100 µM (inactive)	> 100 µM (inactive)	> 100 µM (inactive)	> 100 µM (inactive)	> 100 µM (inactive)	> 100 µM (inactive)	–
Cc1cn(C2CC(CCCO)C(CO)O2)c(=O)[nH]c1=O (centres undefined)	> 100	> 100 µM (inactive)	> 100 µM (inactive)	> 100 µM (inactive)	> 100 µM (inactive)	> 100 µM (inactive)	> 100 µM (inactive)	> 100 µM (inactive)	> 100 µM (inactive)	–	> 100 µM (inactive)	> 100 µM (inactive)	> 100 µM (inactive)	> 100 µM (inactive)	> 100 µM (inactive)
CC(=O)OC1C[C@H]2C(OC(=O)c3ccccc3)C3C4(OC(C)=O)COC4C[C@H](OC(C)=O)[C@@]3(C)C(OC(C)=O)[C@H](OC(C)=O)C(=C1C)C2(C)C (some centres undefined)	47	24.9 µM (inactive)	59.4 µM (inactive)	41.8 µM (inactive)	50.7 µM (inactive)	–	64.7 µM (inactive)	16.2 µM (inactive)	36.7 µM (inactive)	20.1 µM (inactive)	32.7 µM (inactive)	40 µM (inactive)	–	57.9 µM (inactive)	31.2 µM (inactive)
Cc1ccc(S(=O)(=O)ON/N=C2/C3OC3[C@@H]3CCCC[C@H]23)cc1 (some centres undefined)	> 100	> 100 µM (inactive)	> 100 µM (inactive)	> 100 µM (inactive)	> 100 µM (inactive)	> 100 µM (inactive)	> 100 µM (inactive)	39.1 µM (inactive)	> 100 µM (inactive)	> 100 µM (inactive)	> 100 µM (inactive)	–	> 100 µM (inactive)	> 100 µM (inactive)	> 100 µM (inactive)
CC(C)N(C(=O)C12C3C4C1C1C4(C#N)C3C12C(=O)O)C(C)C (centres undefined)	> 44.7	> 100 µM (inactive)	> 100 µM (inactive)	> 100 µM (inactive)	> 100 µM (inactive)	16.8 µM (inactive)	> 100 µM (inactive)	–	> 100 µM (inactive)	> 100 µM (inactive)	> 100 µM (inactive)	> 52.8 µM (inactive)	> 100 µM (inactive)	> 60.3 µM (inactive)	97.9 µM (inactive)
C#CCSc1nc(N)c2ncn(C3OC(COP(=O)(O)O)C(O)C3O)c2n1 (centres undefined)	> 239	> 239 µM (inactive)	> 239 µM (inactive)	> 239 µM (inactive)	> 239 µM (inactive)	> 239 µM (inactive)	> 239 µM (inactive)	–	> 239 µM (inactive)	> 239 µM (inactive)	> 239 µM (inactive)	> 239 µM (inactive)	–	> 239 µM (inactive)	> 239 µM (inactive)
CC(C)C(CCOS(=O)(=O)O)CCC(C)[C@H]1[C@@H](O)C(O)C2[C@]3(O)C[C@@H](O)C4(O)C[C@@H](O)CC[C@]4(C)C3CC[C@@]21C (some centres undefined)	> 100	> 100 µM (inactive)	> 100 µM (inactive)	> 100 µM (inactive)	> 100 µM (inactive)	> 100 µM (inactive)	> 100 µM (inactive)	> 100 µM (inactive)	> 100 µM (inactive)	–	> 100 µM (inactive)	> 100 µM (inactive)	> 100 µM (inactive)	> 100 µM (inactive)	> 100 µM (inactive)

Source: ChEMBL document CHEMBL1201862, “PubChem BioAssay data set” (2004)
